# Measurements taken from US20030232063A1, “Aminosulfonic acid compounds for promoting desquamation of the skin” (SOCIETE L'OREAL S.A., priority 2000, published 2003).
# System: corneodesmosine
# Test: Degradation of corneodesmosines in acetonic powders of stratum corneum (immunoblotting with antibody G36-19, chemiluminescence)
# Format: biochemical, human
# Conditions: aqueous solution containing 2% of active agent, pH 8.0, 17 h incubation at 30° C., 33 and 46 kD bands, versus control without active agent
# Procedure: Method for evaluating desquamation by measuring the degradation of corneodesmosines The ability of aminosulfonic derivatives of formula (I) according to the invention to promote desquamation by degradation of corneodesmosines is studied in this example. […] It is studied by immunoblotting after separation by electrophoresis and transfer onto a membrane. […] The nylon-varnish strips associated with the corneocytes are immersed in 1 ml/cm^2 of acetone in order to detach the corneocytes. The mixture is filtered and then rinsed three times with the same volume of acetone in order to remove all trace of varnish. Finally, the mixture is dried under vacuum: acetonic powders of stratum corneum are thus obtained. The acetonic powders are divided into 1 mg aliquots. 100 μl of the aqueous solutions containing 2% of active agent adjusted to pH 8.0 are added. […] Two incubation times are studied: t=0 and t=17 h. In the latter case, the incubation takes place at 30° C. with stirring. After incubation, the mixtures are centrifuged for 10 minutes at 10 000×g. The supernatant is removed and replaced with 100 μl of 0.0625 M Tris/HCl pH 6.8 Laemmli buffer, 2% SDS, 200 mM DTT, 10% glycerol, which allows the proteins to be extracted. The mixture is boiled for 10 minutes at 100° C. and then ground in a Potter mill. The mixture is centrifuged for 10 minutes at 10 000×g and the supernatant is then collected. It contains the corneodesmosomal proteins. The total proteins are assayed according to the Bradford method (Biorad kit). This allows an adjustment to 0.6 mg/ml of the samples and a real comparison of the treatments. The samples and also a Rainbow (Amersham Pharmacia Biotech) low molecular weight standard at 1⁄3 are separated by electrophoresis on gel containing 12% acrylamide for 30 minutes at 100 V and then for 1 hour at 200 V. After the electrophoresis, the proteins are transferred onto an Immobilon-P membrane (Millipore) for 3 hours at 60 V. The membrane is then incubated for twice 15 minutes in TBS-TL buffer: 25 mM Tris, 0.15M NaCi pH 7.2, 0.05% Tween 20, 0.5% skimmed milk powder, in order to block the non-specific sites. Incubation with the antibody [MUT]-19 at 1/12500 is performed overnight at 4° C. After two rinses of 5 minutes in TBS-TL buffer, the membrane is incubated with a goat anti-mouse IG(H+L) antibody peroxidase conjugate (Biorad) at 1/4000 for 1 hour 30 minutes at ambient temperature. After several rinses of 5 minutes in TBS-TL buffer and then TBS buffer (without milk or Tween), the membrane is incubated for 1 minute in 10 ml of ECL reagent (Amersham Pharmacia Biotech). The chemiluminescence of the corneodesmosine bands is measured with the FluorS Multimager (Biorad). The 33 and 46 kD bands are quantified with the Quantity-one software (Biorad). […] This control takes into account the natural degradation of the corneodesmosines which takes place during the incubation.
row,SMILES,Percentage increase in the degradation of corneodesmosine
1,"O=S(=O)(O)CCCN1CCOCC1 [3-Morpholinopropanesulfonic acid, 3-morpholinopropanesulfonic acid]",39%
2,O=S(=O)(O)CCN1CCN(CCO)CC1 [4-(2-hydroxyethyl)piperazine-1-ethanesulfonic acid],65%
3,"NCC(=O)O [Glycine, reference compound]",51%
4,"O=S(=O)(O)CCN1CCN(CCS(=O)(=O)O)CC1 [piperazine-1,4-bis(2-ethanesulfonic acid)]",65%
5,"O=S(=O)(O)CC(O)CN1CCN(CC(O)CS(=O)(=O)O)CC1 (stereo not drawn) [piperazine-1,4-bis(2-hydroxypropanesulfonic acid)]",63%

# System: desmoglein (corneodesmosomal protein)
# Test: not given
# Conditions: shown in EP-A2-0,852,949 (Shiseido); cited from earlier work
row,SMILES,Effect on the degradation of desmoglein (in words)
1,"NCC(=O)O [Glycine, reference compound]",promotes the degradation of desmoglein
